What was measured:
Format in all cases: cell-based
[1] = test system: genes associated with stemness/EMT; assay: RNA-Seq / qPCR of genes associated with stemness/EMT in melanoma cells; conditions: A375-P cells, 1 μM PLX4720, 0.5 μM AZD6244 or both, 24 h, versus 0.01% DMSO
Procedure: Data shown represent mean of independent biological triplicates ±SEM. (E) Western blot analysis of the same experiment as shown in (D). […] P-ERK1/2 levels served as positive treatment controls. Total ERK1/2 levels served as loading control. (F) A375-P cells were treated with 1 μM PLX4720, 0.5 μM AZD6244 (MEK1/2 inhibitor) or 0.01% DMSO for the indicated times and SOX2 levels were assessed by Western blot analysis. […] (G) A375-P cells were treated with 1 μM PLX4720 (BRAFi), 0.5 μM AZD6244 (MEKi), a combination of both drugs or 0.01% DMSO for the indicated times and SOX2 levels were assessed by Western blot analysis. […] For all Western blots, individual time points were assessed in at least two independent experiments. Representative data is shown.

S6K and BAD = assay: Survival signaling by Western blot in A375-P/pTRIPZ cells; conditions: A375-P/pTRIPZ-control or -SOX2 cells, PLX4720 48 h
Procedure: (A) A375-P cells were transfected with 100 nM siRNA targeting SOX2 or a negative control siRNA. Cells were then treated with PLX4720 (BRAFi) or DMSO for 48 h. 2 h before harvesting, cells were pulsed with 3 uM EdU to label cycling cells. EdU-positive cells were detected using flow cytometry. Note that SOX2 knockdown has no effect on cell proliferation when BRAF is active (DMSO) but reduces the pool of drug-tolerant, cycling cells in the BRAFi condition. Representative data is shown. (B) Quantification of experiment (A). For each condition, percentage of cycling cells upon siRNA knockdown of SOX2 was normalized to the negative control siRNA. Data shown represent mean of independent biological triplicates ±SEM. (C) A375-P cells stably transduced with pTRIPZ-SOX2 vector were treated with the indicated concentrations of doxycycline for three days or with 1 μM PLX4720 (PLX) for 24 h. SOX2 overexpression was confirmed by Western blot analysis. Lamin A served as loading control. Individual concentrations were assessed in at least two independent experiments. Representative results are shown. […] EdU-positive cells were detected using flow cytometry. […] Cell viability was assessed by PrestoBlue assay and IC50 values were calculated. […] Survival signaling was assessed by Western blot. […]

SOX2 = SOX2 levels by Western blot in A375-P cells; conditions: 1 μM PLX4720, 0.5 μM AZD6244 or both, indicated times, versus 0.01% DMSO
Procedure: (A) A375-P cells were treated with PLX4720 (BRAFi) or DMSO for 6 h, RNA was isolated and RNA-Seq was performed. […] Differentially expressed genes (DEGs) selected for pathway analysis are represented by red and blue dots depending on the direction of the transcriptional change (red genes are induced upon PLX4720, blue genes are repressed upon PLX4720). (B) Bar graphs showing the five top pathways with significant enrichment of the analyzed DEGs. Longer bars indicate stronger significance. (C) Top deregulated genes upon treatment with PLX4720 (left column). Top genes induced and repressed by PLX4720 are shown in separate lists. (D) Indicated cell lines were treated with 1 μM PLX4720 or 0.01% DMSO (0 h) for the indicated times and the expressional changes of selected genes associated with stemness/EMT were confirmed by qPCR. […] As key player in the sternness signature, SOX2 levels were assessed. […] (F) A375-P cells were treated with 1 μM PLX4720, 0.5 μM AZD6244 (MEK1/2 inhibitor) or 0.01% DMSO for the indicated times and SOX2 levels were assessed by Western blot analysis. […] (G) A375-P cells were treated with 1 μM PLX4720 (BRAFi), 0.5 μM AZD6244 (MEKi), a combination of both drugs or 0.01% DMSO for the indicated times and SOX2 levels were assessed by Western blot analysis. […] For all Western blots, individual time points were assessed in at least two independent experiments. […]

CCCS(=O)(=O)Nc1ccc(F)c(C(=O)c2c[nH]c3ncc(Cl)cc23)c1F [PLX4720]
expressional changes of selected genes associated with stemness/EMT (qPCR) [1]: comparable effects on transcript levels
Survival signaling via S6K and BAD (Western blot) (S6K and BAD): repressed
SOX2 levels (Western blot) (SOX2): induce similar SOX2 levels

From patent US20200325543A1, “DIAGNOSTIC METHOD” (TOLREMO THERAPEUTICS AG, priority 2017, published 2020)
